Literature values in the PKSmart pharmacokinetics tables (Seal et al. 2025).

Test: Lombardo, Berellini, Obach 2018, Drug Metab Dispos 46:1466, doi 10.1124/dmd.118.082966
Conditions: human; for MRT / Vd / clearance / half-life: in vivo, iv; for fraction unbound: plasma

Compound	MRT [h]	Vd [L/kg]	clearance [mL/min/kg]	half-life [h]	fraction unbound
C/C(=C\c1csc(C)n1)[C@@H]1C[C@@H]2O[C@]2(C)CCC[C@H](C)[C@H](O)C(C)C(=O)C(C)(C)[C@@H](O)CC(=O)O1 (stereo partly drawn)	111	14.4	2.17	92.3	0.22
CN(C)[C@@H](c1cccc(O)c1)[C@H]1CCCC[C@H]1O			2.2	3.85	
C#Cc1cccc(Nc2ncnc3cc(OCCOC)c(OCCOC)cc23)c1	7.55	0.77	1.69	6.5	0.07
O=[N+]([O-])OCC(CO[N+](=O)[O-])O[N+](=O)[O-]			194		
Nc1nc(CC(=O)Nc2ccc(CCNC[C@H](O)c3ccccc3)cc2)cs1	29.3	23.8	13.6	50	0.29
COC1C(=O)C(C)C[C@H](C)C=CC=CC=C(C)[C@@H](OC)C[C@@H]2CC[C@@H](C)[C@@](O)(O2)C(=O)C(=O)N2CCCCC2C(=O)O[C@H]([C@H](C)C[C@@H]2CC[C@@H](OP(C)(C)=O)[C@H](OC)C2)CC(=O)C(C)=CC(C)[C@H]1O (stereo partly drawn)	48.5	3.2	1.1	46.3	
C[C@H]1O[C@@H](O[C@H]2[C@@H](O)C[C@H](O[C@H]3[C@@H](O)C[C@H](O[C@H]4CC[C@@]5(C)[C@H](CC[C@@H]6[C@@H]5CC[C@]5(C)[C@@H](C7=CC(=O)OC7)CC[C@]65O)C4)O[C@@H]3C)O[C@@H]2C)C[C@H](O)[C@@H]1O	170	0.44	0.043		0.066
CN[C@H]1CN(c2ccc3c(=O)c(C(=O)O)cn(-c4nccs4)c3n2)C[C@@H]1OC	30.6	1.46	0.79	25.5	
CCOC(=O)C(CCc1ccccc1)NC(C)C(=O)N1C(C(=O)O)C[C@H]2CCCC[C@H]21 (stereo partly drawn)					0.17
Cc1ncsc1CCCl	3.3	6.6	33	4.5	0.36
C[C@@H](N)[C@H]1CC[C@@H](N)[C@@H](O[C@@H]2[C@@H](N)[C@@H](O)[C@@H](O)[C@@H](N(C)C(=O)CN)[C@H]2O)O1	3.3	0.27	1.37	2.9	
OCCO[C@H]1C[C@@H](n2nnc3c(N[C@@H]4C[C@H]4c4ccc(F)c(F)c4)nc(S)nc32)[C@H](O)[C@@H]1O	6.16	1.25	3.38	6.8	0.002
CCC[C@H](Nc1nc(-c2ccc(NC(=O)NCC)c(OC)c2)ncc1C)c1cccnc1	2.5	3.41	22.2	2.9	
N=C(N)c1ccc(C(=O)NC(Cc2ccc(O)cc2)C(=O)N2CCC(OCC(=O)O)CC2)cc1 (stereo not drawn)	2.5	0.29		2.1	0.94
CCOC(=O)Nc1ccc(NCc2ccc(F)cc2)nc1N	11	1.1	1.6	8.5	
CC1=CC[C@@H](C(C)(C)O)C[C@@H]1O	3.1	0.43	2.7	1.9	
CCc1ccc(Cc2ccc3c(c2)[C@]2(OC3)O[C@H](CO)[C@@H](O)[C@H](O)[C@H]2O)cc1	5.1	0.63	2.07	4.7	0.46
CN1C(=O)C(O)C[C@H]1c1cccnc1 (stereo partly drawn)	7.9	0.85	1.8	5.9	

Compound	MRT [h]	Vd [L/kg]	clearance [mL/min/kg]	half-life [h]	fraction unbound
O=c1[nH]cnc2c1ncn2[C@H]1CC[C@@H](CO)O1	1.2		11	1.4	
NC(O)=NO	4.8	0.52	1.5	3.4	
Cn1c(CNc2ccc(C(=N)N)cc2)nc2cc(C(=O)N(CCC(=O)O)c3ccccn3)ccc21	7.4	0.85	1.93	7.3	0.65
CC[C@H]1OC(=O)C[C@@H](O)[C@H](C)[C@@H](O[C@@H]2O[C@H](C)C[C@H](N(C)C)[C@@H]2O)[C@@H](CC=O)CC(C)C(=O)C=C[C@]2(C)O[C@H]2[C@@H]1C (stereo partly drawn)	3.54	2.83	13.3	3.34	
CCCCCc1cc(O)c2c(c1)OC(C)(C)[C@@H]1CCC(C)=C[C@@H]21	46	8.9	3.2	33	0.05
CCN(CC)CCCC(C)Nc1ccnc2cc(Cl)ccc12 (stereo not drawn)	740	140	4.1	570	
Cc1nccn1CC1CCc2c(c3ccccc3n2C)C1=O (stereo not drawn)	5.2	1.8	5.8	3.4	
COc1cccc2c(C(=O)N3CCN(C)C(C)C3)cn(CC3CCCCC3)c12 (stereo not drawn)	5.7	1	3	4.2	
CC(=O)OC1=C2C(C)[C@@H](OC(=O)C(O)C(NC(=O)c3ccccc3)c3ccccc3)C[C@@](O)([C@@H](OC(=O)c3ccccc3)[C@@H]3[C@]4(OC(C)=O)CO[C@@H]4C[C@H](O)[C@@]3(C)C1=O)C2(C)C (stereo partly drawn)	7.8	3	6.4	11	0.12
C[C@H](CCc1ccc(O)cc1)NCCc1ccc(O)c(O)c1			115		
CC(C)NCC(O)c1ccc(O)c(O)c1 (stereo not drawn)	0.43	1.5	56	0.41	0.71
NN=c1cc2c(n[nH]1)CCN(C(=O)c1ccccc1)C2	2.7	2.2	13	5.6	
CCCCCN(C)CCC(O)(P(=O)(O)O)P(=O)(O)O	5.1	0.55	1.8	14	0.15
CCCCc1nc(C)c(CC(=S)N(C)C)c(=O)n1Cc1ccc(-c2ccccc2-c2nnn[nH]2)cc1	1.1	0.6	9.6	5.5	
O=C(O)CCCC[C@@H]1CCSS1	0.14	0.1	11.5	0.21	
CNC(=O)c1ccccc1Sc1ccc2c(/C=C/c3ccccn3)n[nH]c2c1			5	4.3	0.004
C=CCNc1c(O)cc2c(O)c1C=C(C)C[C@H](OC)[C@H](O)[C@@H](C)/C=C(\C)[C@H](OC(N)=O)[C@@H](OC)C=CC=C(C)C(=O)N2	3.27	2	10.2	3	
